Measured values reported in publication PMC6268188, “Comparative Studies of the (Anti) Mutagenicity of Baccharis dracunculifolia and Artepillin C by the Bacterial Reverse Mutation Test” (Molecules, 2012).
Where “and” joins values, the source holds several entries; their conditions need not be identical. Equal values may be shown once. Read-outs that look alike come from different tables or passages of the source.

System: S. typhimurium TA97a
[1] = 0.69 µg/plate + AA 1.25 μg/plate, TA 97a, + S9
[2] = 0.69 µg/plate + NOPD 10.0 μg/plate, TA 97a, − S9
[3] = 1.37 µg/plate + AA 1.25 μg/plate, TA 97a, + S9
[4] = 1.37 µg/plate + NOPD 10.0 μg/plate, TA 97a, − S9
[5] = 2.75 µg/plate + AA 1.25 μg/plate, TA 97a, + S9
[6] = 2.75 µg/plate + NOPD 10.0 μg/plate, TA 97a, − S9
[7] = 5.49 µg/plate + AA 1.25 μg/plate, TA 97a, + S9
[8] = 5.49 µg/plate + NOPD 10.0 μg/plate, TA 97a, − S9
[9] = […] + AA 1.25 μg/plate, TA 97a, + S9
[10] = […] + NOPD 10.0 μg/plate, TA 97a, − S9

`CC(C)=CCc1cc(/C=C/C(=O)O)cc(CC=C(C)C)c1O` [ArtC, 3-{4-hydroxy-3,5-di(3-methyl-2-butenyl)phenyl}-2(E)-propenoic acid] was tested, and the “Number of revertants (M ± SD)/ plate” value was 891 ± 17 revertants/plate and 1602 ± 17 revertants/plate, the “% inhibition” value [1] was 14% and the “Number of revertants (M ± SD)/ plate” value [1] was 1603 ± 26 revertants/plate. For the same molecule, the antimutagenic effect class [1] was “* (no antimutagenic effect (< 25% inhibition))”, the “% inhibition” value [2] was 21% and the “Number of revertants (M ± SD)/ plate” value [2] was 876 ± 8 revertants/plate. For the same molecule, the antimutagenic effect class [2] was “* (no antimutagenic effect (< 25% inhibition))”, the “% inhibition” value [3] was 13% and the “Number of revertants (M ± SD)/ plate” value [3] was 1617 ± 16 revertants/plate. The antimutagenic effect class [3] was “* (no antimutagenic effect (< 25% inhibition))”, the “% inhibition” value [4] was 22% and the “Number of revertants (M ± SD)/ plate” value [4] was 862 ± 14 revertants/plate. For the same molecule, the antimutagenic effect class [4] was “* (no antimutagenic effect (< 25% inhibition))”, the “% inhibition” value [5] was 10% and the “Number of revertants (M ± SD)/ plate” value [5] was 1669 ± 19 revertants/plate. The antimutagenic effect class [5] was “* (no antimutagenic effect (< 25% inhibition))”, the “% inhibition” value [6] was 20% and the “Number of revertants (M ± SD)/ plate” value [6] was 885 ± 19 revertants/plate. The antimutagenic effect class [6] was “* (no antimutagenic effect (< 25% inhibition))”, the “% inhibition” value [7] was 13% and the “Number of revertants (M ± SD)/ plate” value [7] was 1620 ± 21 revertants/plate. For the same molecule, the antimutagenic effect class [7] was “* (no antimutagenic effect (< 25% inhibition))”, the “% inhibition” value [8] was 16% and the “Number of revertants (M ± SD)/ plate” value [8] was 933 ± 7 revertants/plate. The antimutagenic effect class [8] was “* (no antimutagenic effect (< 25% inhibition))”, the “reduction of NOPD mutagenicity” value (TA97a, NOPD) was “no antimutagenic activity” and the “reduction of AA mutagenicity” value (TA97a, with metabolic activation, AA) was “no antimutagenic activity”. The “% inhibition” value [9] was 14%, the antimutagenic effect class [9] was “* (no antimutagenic effect (< 25% inhibition))” and the “% inhibition” value [10] was 19%. The antimutagenic effect class [10] was “* (no antimutagenic effect (< 25% inhibition))”.
